Laboratory results: PubChem BioAssay AID1996
In brackets after ≈: the same amount, converted by molar mass.

Details: buffer; pH 7.4; 200.0 µM

| SMILES | solubility kinetic [µg/mL] |
| --- | --- |
| COc1ccc(-c2cc(C3CC3)nc(N)c2C#N)cc1 | 1.7 (≈ 6.41 µM) |
| COc1ccc(CCN(C)C(=O)c2cnc(C)cn2)cc1OC | 38.1 (≈ 121 µM) |
| CS(=O)(=O)c1ccc(NC(=O)CN2C(=O)C3CCCCC3C2=O)cc1 (stereo not given) | > 54.7 |
| COc1ccc(NC(=O)[C@@H]2CCCN2S(=O)(=O)c2ccc(Cl)cc2)cc1 | > 59.2 |
| Cc1nc2oc3ccc(Cl)cc3c(=O)c2cc1C(=O)O | > 43.5 |
| COc1ccc(CN2CCc3ccccc3C2)cc1Br | 11.3 (≈ 34 µM) |
| COc1cc(NC(=O)CCc2c(C)noc2C)c(Cl)cc1C(=O)O | > 52.9 |
| O=C(NCCc1ccc(Cl)cc1)c1ccc(Br)s1 | 1.2 (≈ 3.48 µM) |
| CN(Cc1nc2ccccc2n1C)C(=O)c1ccco1 | 39.9 (≈ 148 µM) |
| Nc1nc2c(Cl)ccc(Cl)c2s1 | 3.2 (≈ 14.6 µM) |
| COc1ccc(Nc2nc(C)nc3c2oc2ccccc23)c(OC)c1 | < 0.2 |
| CC(NCc1ccccc1C(F)(F)F)C(O)c1ccccc1.Cl (stereo not given) | > 51.9 |
| CNC(=O)COC(=O)CCC(=O)c1ccc(Cl)cc1 | 36.2 (≈ 128 µM) |
| CCOc1cc2c(cc1/C=C/c1noc(C)c1[N+](=O)[O-])OC(C)C2 (stereo not given) | < 0.4 |
| CCOc1ccc(N2C(=O)CSC2=NC#N)cc1 | 38.3 (≈ 147 µM) |
| Cc1cccn2c(=O)nc(SCC(=O)NCc3ccc(F)cc3)nc12 | > 53.8 |
| CCN1C(=O)c2ccc(C(=O)Nc3ccc(O)cc3C)cc2C1=O | > 48.7 |
| O=C(CSc1nc(C2CC2)nc2ccccc12)Nc1ccccc1 | < 0.2 |
| CCOC(=O)c1c(NC(=O)c2cc(C)on2)c2cc([N+](=O)[O-])ccc2n1C | 1.6 (≈ 4.3 µM) |
| CC1CCCC(NC(=O)c2ccncc2)C1C (stereo not given) | > 34.8 |
| COc1ccc(C(CC(=O)O)N2C(=O)CCC2=O)cc1 (stereo not given) | > 41.6 |
| O=S(=O)(Cc1ccccc1Cl)NCCc1ccc(F)cc1 | > 49.2 |
| O=C(Nc1ccc2nc(N3CCOCC3)sc2c1)c1ccccc1 | 7.2 (≈ 21.2 µM) |
| Cc1cc(Cl)c2cc3ccccc3cc2n1 | 0.9 (≈ 3.95 µM) |

| SMILES | solubility kinetic [µg/mL] |
| --- | --- |
| CCN(C(=S)NC(=O)C1CCCC1)C1CCCCC1 | > 42.4 |
| Cc1cc(C(=O)Nc2ccccc2C(=O)O)oc1C | 31.3 (≈ 121 µM) |
| CC(NC(=O)COC(=O)C12CC3CC(CC(Br)(C3)C1)C2)c1ccccc1 (stereo not given) | 20.6 (≈ 49 µM) |
| CCOC(=O)C1CCCN(CC(=O)c2c[nH]c3ccc(C)cc23)C1 (stereo not given) | 46.5 (≈ 142 µM) |
| CCCNC(=O)c1oc2ccc3c(c2c1C)C=CC(C)(C)O3 | 14.2 (≈ 47.4 µM) |
| COc1cccc(OC)c1C(=O)NCCOc1cc(C)cc(C)c1 | 28.3 (≈ 85.9 µM) |
| CCC(=O)NC1(C(F)(F)F)C(=O)Nc2c1c(=O)[nH]c(=O)n2CC(C)C (stereo not given) | 54 (≈ 149 µM) |
| Cc1ccc(CCS(=O)(=O)c2ccc(C(C)(C)C)cc2)cn1 | > 47.6 |
| COC(=O)c1ccc(NC(=O)NC(=O)Oc2ccccc2)cc1 | 42.5 (≈ 135 µM) |
| O=C(NCc1cccnc1)Nc1ccc(Br)cc1Cl | 19.2 (≈ 56.4 µM) |
| Cc1ccc(Cn2c(=O)c3c(ncn3C)n(C)c2=O)cc1 | > 42.6 |
| COc1ccc(C=O)cc1CSc1ncccc1C(=O)O | > 45.5 |
| Br.Cn1ccnc1SCC(=O)c1ccc(Cl)cc1 | 48.9 |
| Cc1ccc(S(=O)(=O)N2CCN(C)CC2)cc1 | > 38.2 |
| O=C(Nc1cccc(NC(=O)C2CCCO2)c1)C1CCCO1 (stereo not given) | > 45.7 |
| Cc1cc(C)n2c(SCC(=O)Nc3cc(S(=O)(=O)N(C)C)ccc3C)nnc2n1 | > 65.2 |
| COC(=O)C1=Nc2ccccc2/C1=C\c1c(O)n(C)c(=O)n(C)c1=O | > 51.2 |
| CN(C)c1ccc(/C=N/NC(=O)c2ccc3nc[nH]c3c2)cc1 | > 46.1 |
| Brc1cnc2nc[nH]c2c1 | > 29.7 |
| CCC(C)C(=O)Nc1ccc(S(=O)(=O)Nc2nccs2)cc1 (stereo not given) | > 50.9 |
| COc1ccc(S(=O)(=O)Nc2noc3ccccc23)cc1 | 42.1 (≈ 138 µM) |
| CC(=O)N/N=C(\C)c1cccc(C(F)(F)F)c1 | > 36.6 |
| COC(=O)c1cc(N2CCNCC2)nc2ccccc12.Cl | 39.9 |
| COCCCNC(=S)Nc1cccc2ncccc12 | 40.9 (≈ 149 µM) |

| SMILES | solubility kinetic [µg/mL] |
| --- | --- |
| CC(=C\c1ccccc1)/C=C1/SC(=S)N(CCC(=O)O)C1=O | 34.7 (≈ 104 µM) |
| CNc1cc(C)c(C#N)c2nc3ccccc3n12 | 2.6 (≈ 11 µM) |
| Cc1c(C(=O)Nc2ccc(Nc3ccccc3)cc2)cccc1[N+](=O)[O-] | 1.3 (≈ 3.74 µM) |
| Nc1ncccc1OCc1ccc(Br)cc1 | 37.3 (≈ 134 µM) |
| COc1ccc(C(=O)O/N=C(\N)c2ccc(Cl)cc2)cc1 | 0.4 (≈ 1.31 µM) |
| N#C/C(=C\c1ccccc1[N+](=O)[O-])C(=O)NCc1ccccc1 | > 46.1 |
| CC(C)[C@H](NS(=O)(=O)c1ccccc1)C(=O)Nc1ccccc1N1CCOCC1 | 52.1 (≈ 125 µM) |
| CC(C)c1nc(C#N)c(NN)o1 | > 24.9 |
| O=C(COC(=O)c1ccc(Cl)nc1)NCCC1=CCCCC1 | 36.6 (≈ 113 µM) |
| COc1ccc(C)cc1NC(=O)Nc1ccccc1SC | 1.3 (≈ 4.3 µM) |
| CCOC(=O)c1ccc(S(=O)(=O)N2CCN(C(C)=O)CC2)cc1 | > 51.1 |
| O=C(NC(=S)NC1CCCCC1)c1ccccc1[N+](=O)[O-] | 3 (≈ 9.76 µM) |
| Cc1ccc(C(=O)N2CCCc3ccccc32)c(F)c1F | 17.2 (≈ 59.9 µM) |
| Cc1cc(SCc2ccccc2F)nc(=O)[nH]1 | > 37.5 |
| CC(=O)c1c(-c2ccc(Cl)cc2Cl)noc1C | 17.5 (≈ 64.8 µM) |
| CC(C(=O)Nc1ccccc1)N1CCN(c2ccccn2)CC1 (stereo not given) | 11.2 (≈ 36.1 µM) |
| CC(=O)c1ccc(N=C2C(=O)Nc3ccccc32)cc1 | 36.6 (≈ 138 µM) |
| O=C(N/N=C/c1ccc([N+](=O)[O-])o1)C1CCCC1 | > 37.7 |
| O=C(O)CC(CC(=O)Nc1ccc(C(=O)O)cc1)c1ccccc1 (stereo not given) | > 49.1 |
| COc1cccc(N2C(=O)c3cccnc3C2O)c1 (stereo not given) | 34.4 (≈ 134 µM) |
| CSc1nc2ccccc2c(=O)n1C1CCCCC1 | 1 (≈ 3.64 µM) |
| O=C(c1ccco1)N1CCN(C(=O)c2ccc(-c3ccc([N+](=O)[O-])cc3)o2)CC1 | 44.1 (≈ 112 µM) |
| Fc1cccc(CN2CCN(c3ccc(Cl)cc3)CC2)c1 | 4.1 (≈ 13.5 µM) |
| CC1CCCN(C(=O)CCCNC(=O)c2ccc(Cl)cc2)C1 (stereo not given) | > 48.4 |

| SMILES | solubility kinetic [µg/mL] |
| --- | --- |
| NC(=S)COc1ccccc1 | 18.3 (≈ 109 µM) |
| O=C(O)Cc1ccc(NCc2ccccc2Cl)cc1 | 28 (≈ 102 µM) |
| CCN(CC(=O)NCc1cccs1)C(=O)Cc1ccc(Cl)c(Cl)c1 | > 57.8 |
| CC(=O)c1ccc(OCCOc2ccc([N+](=O)[O-])cc2)cc1 | 3.7 (≈ 12.3 µM) |
| COC(Cn1cc(C)c(=O)[nH]c1=O)OC | 30.3 (≈ 141 µM) |
| CC(=O)c1c(C)[nH]c(C(=O)N2CCN(c3ccccn3)CC2)c1C | 42.4 (≈ 130 µM) |
| O=C(c1ccccc1)N1CCCC(C(=O)N2CCN(c3ccccc3)CC2)C1 (stereo not given) | 46.8 (≈ 124 µM) |
| COc1ccc(NC(=O)COC(=O)CCC2CCCCC2)cc1 | 19.4 (≈ 60.7 µM) |
| Cc1cccc2nc3ccccc3nc12 | 0.7 (≈ 3.6 µM) |
| CCN(CC(=O)Nc1ccc(NC(C)=O)cc1)S(=O)(=O)/C=C/c1ccccc1 | 9.6 (≈ 23.9 µM) |
| COC(=O)c1ccc(NC(=S)Nc2ccc(O)cc2)cc1 | 22.3 (≈ 73.8 µM) |
| Cc1cc2cc(C#N)c(N3CCOCC3)nc2cc1Cl | 0.5 (≈ 1.74 µM) |
| Nc1ccc(CCc2ccc(N)cc2)cc1 | 22 (≈ 104 µM) |
| CC(=O)N1CCN(CC(=O)Nc2cc(S(=O)(=O)N3CCCCC3)ccc2C)CC1 | > 63.4 |
| CCc1nc(C(N)=O)c2[nH]c(=O)n(-c3ccc(OC)cc3OC)c2n1 | > 51.5 |
| Cc1csc(NC(=O)c2ccc(Br)s2)n1 | 24.9 (≈ 82.1 µM) |
| CN1c2ccccc2C(=O)/C(=C\Nc2ncccn2)S1(=O)=O | 2.8 (≈ 8.85 µM) |
| COc1cc2sc(NC(=O)c3ccco3)nc2cc1Cl | < 0.3 |
| Cc1nc(SCC(N)=O)c([N+](=O)[O-])[nH]1 | > 32.4 |
| CCCCn1c(=N)n(CC(O)c2ccccc2)c2ccccc21.Cl (stereo not given) | > 51.9 |
| O=C(/C=C/c1ccc(Cl)c([N+](=O)[O-])c1)c1cccnc1 | 2.2 (≈ 7.62 µM) |
| CC(C(=O)OCC(=O)N1CCCCC1)N1C(=O)c2ccccc2C1=O (stereo not given) | > 51.7 |
| COC(=O)c1ccc(CNC(=O)c2coc3ccccc3c2=O)cc1 | 3.7 (≈ 11 µM) |
| O=C(OCC(=O)N1CCC(Cc2ccccc2)CC1)c1cccnc1Cl | 46.2 (≈ 124 µM) |

| SMILES | solubility kinetic [µg/mL] |
| --- | --- |
| COc1ccc(C(C)=O)cc1CC(=O)NCCCn1ccnc1 | > 47.3 |
| O=C(CN1C(=O)NC2(CCCCCCC2)C1=O)NCc1ccccc1 | 47.7 (≈ 139 µM) |
| Cc1ccc(CNC(=O)C(CC(C)C)OC(=O)c2ccco2)cc1 (stereo not given) | 11.2 (≈ 34 µM) |
| CC(C)(C)Nc1ncnc2sc(-c3ccccc3)cc12 | < 0.2 |
| CC1CN(S(=O)(=O)c2cccc(C(=O)N3CCC(C(N)=O)CC3)c2)CC(C)O1 (stereo not given) | > 61.4 |
| O=C(NCc1ccccc1F)c1ccncc1 | 29.5 (≈ 128 µM) |
| O=C(c1cccs1)N1CCN=C1SCc1ccccc1F | < 0.3 |
| O=C(CN1CCc2ccccc2C1)Nc1ccc(F)cc1F | 28.5 (≈ 94.3 µM) |
| Nc1c(C(=O)OCC(=O)Nc2cccc([N+](=O)[O-])c2)[nH]c(=O)[nH]c1=O | 51.5 (≈ 147 µM) |
| O=C1Nc2ccccc2O/C1=C\c1ccccc1Br | 3.3 (≈ 10.4 µM) |
| CCc1ccc(NC(=O)c2cc(C)no2)cc1 | 14.3 (≈ 62.1 µM) |
| COc1ccc2c(c1)c(C(=O)CN1CCCCC1)c(C)n2C | 44.3 (≈ 147 µM) |
| CC1CCN(C(=O)CCN2C(=O)C3C4C=CC(C4)C3C2=O)CC1 (stereo not given) | > 47.5 |
| CCN(CC)CCCN(C(=O)c1ccc(F)cc1)c1nc(-c2ccc(OC)cc2)cs1 | 62.1 (≈ 141 µM) |
| COc1cc(C)ccc1OCC(=O)OCC(=O)c1[nH]c(C)c(C(C)=O)c1C | 13.5 (≈ 36.2 µM) |
| O=C(Nc1cccc(S(=O)(=O)N2CCCCCC2)c1)c1cncc(Br)c1 | 13.1 (≈ 29.9 µM) |
| Cc1ccc(OCCCC(=O)NC2CCCCC2)cc1 | 15.7 (≈ 57 µM) |
| Cc1cc(C)cc(N2CC(C(=O)NC3CCCCC3)CC2=O)c1 (stereo not given) | 11.4 (≈ 36.3 µM) |
| Nc1ccc(S(=O)(=O)NCc2ccccn2)cc1 | > 39.5 |
| Cc1ccc(N2C(=O)NC(=O)/C(=C\C=C\c3ccco3)C2=O)cc1 | 8.8 (≈ 27.3 µM) |
| Cc1ccccc1NC(=O)CC(=O)c1ccccc1 | > 38 |
| Cc1ccc(O)c(NC(=S)NC(=O)C(C)C)c1 | > 37.8 |
| C=CCc1cccc2cc(C(=O)NCCOC)c(=O)oc12 | 41.5 (≈ 144 µM) |
| Cc1c(-c2ccc(Cl)cc2)[n+](=O)c2c(n1[O-])CCCC2 | > 43.6 |
